Molecular target: PHGDH (Homo sapiens (Human), UniProt O43175)
Experiment: PHGDH inhibition, coupled assay with PSAT1/PSPH and diaphorase/resazurin readout
Type: biochemical
Conditions: Table E9; mixture with PSAT1, PSPH; diaphorase/resazurin reporter

Chain of PHGDH (O43175 whole entry): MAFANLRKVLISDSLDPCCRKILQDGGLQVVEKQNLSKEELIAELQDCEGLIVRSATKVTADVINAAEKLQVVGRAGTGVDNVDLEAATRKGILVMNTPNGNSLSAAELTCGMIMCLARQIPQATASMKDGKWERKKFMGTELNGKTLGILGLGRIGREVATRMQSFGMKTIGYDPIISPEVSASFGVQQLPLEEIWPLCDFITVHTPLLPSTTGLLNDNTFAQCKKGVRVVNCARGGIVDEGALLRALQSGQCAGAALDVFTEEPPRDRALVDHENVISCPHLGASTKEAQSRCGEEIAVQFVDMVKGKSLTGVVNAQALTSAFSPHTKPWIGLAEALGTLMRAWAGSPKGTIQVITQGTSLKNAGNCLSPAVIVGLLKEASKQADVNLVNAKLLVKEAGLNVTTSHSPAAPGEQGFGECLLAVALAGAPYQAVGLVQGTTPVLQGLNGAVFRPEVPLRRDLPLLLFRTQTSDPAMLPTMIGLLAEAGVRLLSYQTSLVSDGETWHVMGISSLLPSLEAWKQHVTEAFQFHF

Structure (SMILES) | IC50 [µM]
Cc1cc(C)nc(NC(=S)N2CCN(c3ccc4nccn4c3)CC2)c1 [Compound 162] | ≥ 20
Cc1cc(C)nc(NC(=S)N2CCN(c3ccc(F)c(Cl)c3)CC2)c1 [Compound 215] | 5 to 10
Cc1cc(C)nc(NC(=S)N2CCN(c3cccc(C(F)(F)F)n3)CC2)c1 [Compound 116] | 5 to 10
Cc1cc(C)nc(NC(=S)N2CCN(c3cc(Br)cc(C(F)(F)F)c3)CC2)c1 [Compound 142] | 5 to 10
Cc1ccnc(NC(=S)Nc2cccc(C(F)(F)F)c2)c1 [Compound 46] | 10 to 20
COc1ccnc(NC(=S)N2CCN(c3ncc(C(F)(F)F)cc3Cl)CC2)c1 [Compound 185] | 5 to 10
Cc1cc(C)nc(NC(=S)N2CCN(c3ncccc3C#N)CC2)c1 [Compound 121] | ≥ 20
Cc1ccnc(NC(=S)N2CCN(c3ccc(F)cc3)CC2)c1 [Compound 7] | ≥ 20
Cc1cc(C)nc(NC(=S)N2CCC(Nc3cccc(C(F)(F)F)c3)CC2)c1 [Compound 250] | < 5
Cc1cc(C)nc(NC(=S)N2CCN(c3cc(Cl)c(Cl)c(Cl)c3)CC2)c1 [Compound 206] | ≥ 20
Cc1cc(C)nc(NC(=S)N2CCN(c3ccc(Cl)cc3C(F)(F)F)CC2)c1 [Compound 210] | 10 to 20
CCN1CCN(C(=S)c2ccc(O)cc2)CC1 [Compound 15] | ≥ 20
COc1ccnc(NC(=S)N2CCN(c3ccccc3C(F)(F)F)CC2)c1 [Compound 183] | 5 to 10
Cc1cc(C)nc(NC(=S)N2CCN(c3ccc(Cl)nn3)CC2)c1 [Compound 165] | ≥ 20
Cc1cc(C)nc(NC(=S)N2CCN(c3ccc(C(F)(F)F)cc3[N+](=O)[O-])CC2)c1 [Compound 110] | 5 to 10
COc1ccccc1N[S+](=O)([O-])c1cc(NC(=O)c2ccc3ccccc3n2)ccc1N1CCCC1 [Compound 249] | ≥ 20
O=C(Nc1cc2ccccc2cn1)N1CCN(c2cccc(C(F)(F)F)c2)CC1 [Compound 152] | ≥ 20
FC(F)(F)c1cccc(N2CCN(C(=S)Nc3nccc4ccccc34)CC2)c1 [Compound 32] | 5 to 10
COc1cccc(NC(=S)N2CCN(c3ccc(C(F)(F)F)cc3[N+](=O)[O-])CC2)n1 [Compound 192] | 10 to 20
Cc1ccnc(NC(=S)N2CCN(c3cc(C(F)(F)F)cc(C(F)(F)F)c3)CC2)c1 [Compound 170] | 5 to 10
Cc1ccnc(NC(=S)N2CCN(c3ccc(N)cc3)CC2)c1 [Compound 17] | ≥ 20

Structure (SMILES) | IC50 [µM]
COc1ccnc(NC(=S)N2CCN(c3ccc(Cl)c(Cl)c3)CC2)c1 [Compound 182] | 5 to 10
Cc1ccnc(NC(=S)N2CCc3cc(C(F)(F)F)ccc3C2)c1 [Compound 61] | 10 to 20
Cc1cc(C)nc(NC(=S)N2CCN(c3nncs3)CC2)c1 [Compound 131] | ≥ 20
Cc1ccnc(NC(=S)N2CCN(c3ccc4ccccc4n3)CC2)c1 [Compound 177] | 10 to 20
Cc1ccnc(NC(=S)N2CCCC(Nc3cccc(C(F)(F)F)c3)C2)c1 (stereo not drawn) [Compound 58] | 5 to 10
Cc1ccnc(NC(=S)N2CCCN(c3cccc(C(F)(F)F)c3)CC2)c1 [Compound 49] | 10 to 20
Cc1cc(NC(=S)N2CCN(c3cccc(C(F)(F)F)c3)CC2)nc2ccccc12 [Compound 127] | ≥ 20
Cc1cc(C)nc(NC(=S)N2CCN(c3cccc4nccn34)CC2)c1 [Compound 150] | ≥ 20
FC(F)(F)c1cccc(N2CCN(C(=S)Nc3ccncc3)CC2)c1 [Compound 31] | 10 to 20
Cc1cc(C)nc(NC(=S)N2CCN(Cc3cccc4ccccc34)CC2)c1 [Compound 168] | ≥ 20
Cc1ccnc(NC(=S)N2CCN(c3cccc(C(F)(F)F)c3)C2)c1 [Compound 44] | ≥ 20
Cc1cc(C)nc(NC(=S)N2CCN(Cc3ccc(C)c(C(F)(F)F)c3)CC2)c1 [Compound 302] | 5 to 10
COc1ccnc(NC(=S)N2CCN(c3ccc(Cl)cc3Cl)CC2)c1 [Compound 181] | 10 to 20
Cc1cc(C)nc(NC(=S)N2CCN(Cc3cccc(Cl)c3)CC2)c1 [Compound 284] | 10 to 20
Cc1ccnc(NC(=S)N2CCN(c3cc(Cl)cc(Cl)c3)CC2)c1 [Compound 169] | 5 to 10
Cc1cc(C)nc(NC(=S)N2CCC(CN3CCOCC3)CC2)c1 [Compound 270] | ≥ 20
S=C(Nc1cc(Cl)ccn1)N1CCN(c2ccc3ccccc3n2)CC1 [Compound 203] | ≥ 20
FC(F)(F)c1cccc(N2CCN(C(=S)Nc3nc4ccccc4[nH]3)CC2)c1 [Compound 228] | < 5
Cc1cc(C)nc(NC(=S)N2CCN(c3cccc([S+](C)(=O)[O-])c3)CC2)c1 [Compound 140] | ≥ 20
Cc1cc(C)nc(NC(=S)N2CCN(c3cccc(C(=O)O)c3)CC2)c1 [Compound 102] | ≥ 20
S=C(Nc1cc(Cl)ccn1)N1CCN(c2ccc(Cl)c(Cl)c2)CC1 [Compound 200] | 10 to 20

Structure (SMILES) | IC50 [µM]
Cc1cccc(CN2CCN(C(=S)Nc3cc(C)cc(C)n3)CC2)c1 [Compound 291] | < 5
Cc1ccnc(NC(=S)N2CC3CN(c4ccc(Cl)cc4C(F)(F)F)CC3C2)c1 (stereo not drawn) [Compound 224] | ≥ 20
Cc1cc(C)nc(NC(=S)N2CCN(c3cc(Cl)cc(C(F)(F)F)c3)CC2)c1 [Compound 137] | 10 to 20
Cc1ccnc(NC(=S)N2CCN(c3cccc(C(F)(F)F)c3)C[C@@H]2C)c1 [Compound 48] | 10 to 20
Cc1cc(C)nc(NC(=S)N2CCN(c3cc(Cl)c(Cl)cc3Cl)CC2)c1 [Compound 220] | ≥ 20
COc1cccc(NC(=S)N2CCN(c3ccc(Cl)c(Cl)c3)CC2)n1 [Compound 191] | ≥ 20
FC(F)(F)c1cccc(N2CCN(C(=S)Nc3nc(-c4ccccc4)c[nH]3)CC2)c1 [Compound 230] | < 5
CC(=O)N1CCN(C(=S)Nc2cc(C)ccn2)CC1 [Compound 18] | ≥ 20
Cc1cc(C)nc(NC(=S)N2CCN(c3cc(C(F)(F)F)nc4ccc(C(F)(F)F)cc34)CC2)c1 [Compound 158] | 5 to 10
Cc1cc(C)nc(NC(=S)N2CCN(c3cccc(C#N)c3)CC2)c1 [Compound 66] | 10 to 20
Cc1cc2nc(NC(=S)N3CCN(c4cccc(C(F)(F)F)c4)CC3)[nH]c2cc1C [Compound 244] | < 5
COc1cccc(NC(=S)N2CCN(c3cccc(C(F)(F)F)c3)CC2)n1 [Compound 38] | 5 to 10
Cc1cc(C)nc(NC(=S)N2CCN(Cc3ccc(C(F)(F)F)c(Cl)c3)CC2)c1 [Compound 300] | 5 to 10
Cc1cc(C)nc(NC(=S)N2CCN(c3cc4ccccc4cn3)CC2)c1 [Compound 145] | ≥ 20
Cc1cc(C)nc(NC(=S)N2CCN(c3ccc(Cl)cc3Cl)CC2)c1 [Compound 68] | 5 to 10
Cc1cc(C)nc(NC(=S)N2CCN(c3cccc(OC(F)(F)F)c3)CC2)c1 [Compound 134] | 5 to 10
Cc1cc(C)nc(NC(=S)N2CCN(c3ccc(C(F)(F)F)cc3Cl)CC2)c1 [Compound 212] | 5 to 10
Cc1cc(C)nc(NC(=S)N2CCN(c3nsc4ccccc34)CC2)c1 [Compound 108] | 10 to 20
Cc1cc(C)nc(NC(=S)N2CCN(c3nc(C)cnc3C)CC2)c1 [Compound 104] | ≥ 20
Cc1cc(C)nc(NC(=S)N2CCN(C(=O)c3cccc(C(F)(F)F)c3)CC2)c1 [Compound 261] | 5 to 10
Cc1cc(C)nc(NC(=S)N2CCN(Cc3ccccc3Br)CC2)c1 [Compound 285] | 10 to 20
